Data reported in US20250082651A1, “GANAXOLONE FOR USE IN TREATING GENETIC EPILEPTIC DISORDERS” (Marinus Pharmaceuticals, Inc., priority 2017, published 2025).
Where “and” joins values, the source holds several entries; their conditions need not be identical. Identical values can stand only once. Entries after “also recorded” stand apart in the source; their conditions may differ.

Experiments:
[1] = system: cytochrome P450 (CYP) isoenzymes 1A1/2 and 2B1/2; assay: CYP induction and auto-induction in animals; assay type: in vivo, rat
[2] = system: children with CDKL5 Deficiency Disorder; assay: Phase 2 open-label trial, CDKL5 (CDD) cohort, seizure efficacy; assay type: in vivo, human
From the text: Example 3 concerns a Phase 2 Multicenter, Open-Label Proof-of-Concept Trial of ganaxolone (GNX) in cohorts of children having genetic epilepsies (PCDH19, CDKL5 LGS, and CSWS) (ClinicalTrials.gov Identifier: NCT02358538). There were 11 female children with PCDH19 epilepsy between 5-16 years old with a confirmed genetic mutation. There were 6 female and 1 male children with confirmed genetic mutations in the CDKL5 cohort. There were 10 children in the Lennox Gastaut Syndrome cohort. Two children with CSWS were enrolled into the study. The study was conducted with 12 weeks baseline, and up to 26 weeks of treatment followed by a 52 week open label treatment. The primary efficacy was the percentage change in seizure frequency per 28 days relative to baseline calculated using daily seizure diary. [Time Frame: 26 weeks]. Secondary Outcome Measures were: Clinician Global Impression of Change score as assessed by questionnaire. [Time Frame: 26 Weeks]; Patient Global Impression of Change score as assessed by questionnaire. [Time Frame: 26 Weeks]; Evaluation of safety and tolerability of open-label ganaxolone as adjunctive therapy for uncontrolled seizures in children with rare genetic epilepsies, based on adverse event log and other clinical safety assessments. [Time Frame: 26 weeks]; Responder rates [Time Frame: 26 weeks]; and Seizure free days [Time Frame: 26 weeks].
Following screening and baseline evaluations, consenting patients enrolled into a 26-week study during which investigators were allowed to flexibly dose ganaxolone up to a dose of 1,800 mg/day for patients whose body weight was >30 kg, or up to 63 mg/kg/day for patients whose body-weight was <30 kg. The primary efficacy measure is % change from baseline in the 28-day seizure frequency count. Safety and tolerability were within the secondary objectives of the study.
In this study, oral ganaxolone suspension or capsules were administered up to a total of 63 mg/kg/day (maximum 1800 mg/day) over 2-4 weeks. About six-eight titration steps are used, depending on the size of the patient. Children larger than 30 kg may take the ganaxolone capsules. The ganaxolone oral suspension was administered through an oral dosing syringe three times daily. The ganaxolone capsules were administered twice daily. The patients experience better absorption of the ganaxolone with meals (milk).
After establishing baseline seizure frequency, qualifying subjects entered the study and were treated with open-label ganaxolone oral suspension or ganaxolone capsules at doses up to a maximum of 1800 mg/day for up to 6 months. Maximum study participation was 94 weeks: a screening period up to 12 weeks to establish baseline seizure frequency, up to 26 weeks of treatment, a 52 week extension for subjects who benefited from ganaxolone treatment, and up to 4 weeks of down titration period. […] Refractive cases of LGS or CSWS that had prior response to steroid or ACTH could also have been enrolled.
Ganaxolone oral suspension was administered through an oral dosing syringe by parent or legal guardian 3 times daily (TID), following the morning, noon, and evening meal or snack. Each dose was separated by a minimum of 4 hours and a maximum of 8 hours. A missed dose of ganaxolone could have been taken up to 4 hours before the next scheduled dose; otherwise, the missed dose was not to be given.
Ganaxolone capsules were administered with a glass of water or other liquid 2 times daily (BID), following the morning and evening meal or snack. Ganaxolone was provided as either an oral suspension or capsules based on the subject's weight at study entry. Ganaxolone oral suspension was administered through an oral dosing syringe TID by a parent or guardian, following the morning, midday, and evening meal or snack. Each dose was separated by a minimum of 4 hours and a maximum of 8 hours. Ganaxolone capsules were administered BID, following the morning and evening meal or snack. […]

CC(=O)[C@H]1CC[C@H]2[C@@H]3CC[C@H]4C[C@](C)(O)CC[C@]4(C)[C@H]3CC[C@]12C [Ganaxolone, 3α-hydroxy-3β-methyl-5α-pregnan-20-one]
Auto-induction ([1]; dogs): no auto-induction
Induction of CYP isoenzymes 1A1/2 and 2B1/2 ([1]; female rats): induces
Induction of CYP isoenzymes 1A1/2 and 2B1/2 ([1]; male rats): not males
Auto-induction ([1]; mouse and rat): Auto-induction has also been observed
Improvement in seizure free days, individual patients ([2]; 2 out of 4 completed CDKL5 patients): 78% and 368%
Patients with >50% reduction in seizure counts ([2]; 4 completed CDKL5 patients): 3 out of 4
Patients with increase/improvement in seizure-free days ([2]; 7 CDKL5 patients): Four of the 7; also recorded: Five of the 7
Mean percent change in 28-day total seizure frequency from baseline to Week 26 ([2]; CDD cohort, PP Population): 20.55%
Median percent change in 28-day total seizure frequency from baseline to Week 26 ([2]; CDD cohort, PP Population): 37.70%
Clinical global impression of improvement: much improved ([2]; CDD cohort, end of Week 26): 3 subjects
Clinical global impression of improvement: very much improved ([2]; CDD cohort, end of Week 26): 0 subjects
Overall responder rate ([2]; CDKL5, 3 months (3/7 subjects)): 43%
Overall responder rate ([2]; CDKL5, 6 months (2/6 subjects)): 33%
28-day seizure frequency, sum of individual seizures and clusters, post-baseline 26-week open-label period, Mean (SD) ([2]; CDKL5 N=7, MITT): 137.70
28-day seizure frequency, sum of individual seizures and clusters, post-baseline 26-week open-label period, Median ([2]; CDKL5 N=7, MITT): 67.29
28-day seizure frequency, sum of individual seizures and clusters, post-baseline through Month 3 (Day 91), Mean (SD) ([2]; CDKL5 N=7, MITT): 129.78
28-day seizure frequency, sum of individual seizures and clusters, post-baseline through Month 3 (Day 91), Median ([2]; CDKL5 N=7, MITT): 55.69
Percent change from baseline (at Day 91), 28-day seizure frequency, sum of individual seizures and clusters, Mean (SD) ([2]; CDKL5 N=7, MITT): 31.23% and −31.23%
Percent change from baseline (at Day 91), 28-day seizure frequency, sum of individual seizures and clusters, Median ([2]; CDKL5 N=7, MITT): 47.34% and −47.34%
Percent change from baseline (at Week 26), 28-day seizure frequency, sum of individual seizures and clusters, Mean (SD) ([2]; CDKL5 N=7, MITT): 20.55% and −20.55%
Percent change from baseline (at Week 26), 28-day seizure frequency, sum of individual seizures and clusters, Median ([2]; CDKL5 N=7, MITT): 37.70% and −37.70%
% change seizure rate-12 month, Mean ([2]; CDKL5 cohort, N=3): −56.12%
% change seizure rate-12 month, Median ([2]; CDKL5 cohort, N=3): −47.79%
Post-baseline 28-day seizure rate-12 month, Mean ([2]; CDKL5 cohort, N=3): 114.39
Post-baseline 28-day seizure rate-12 month, Median ([2]; CDKL5 cohort, N=3): 76.54
% change seizure rate-3 month, Mean ([2]; CDKL5 cohort, N=7): −32.67%
% change seizure rate-3 month, Median ([2]; CDKL5 cohort, N=7): −49.99%
% change seizure rate-6 month, Mean ([2]; CDKL5 cohort, N=7): −16.81%
% change seizure rate-6 month, Median ([2]; CDKL5 cohort, N=7): −47.80%
Post-baseline 28-day seizure rate-3-month, Mean ([2]; CDKL5 cohort, N=7): 821.16
Post-baseline 28-day seizure rate-3-month, Median ([2]; CDKL5 cohort, N=7): 57.87
Post-baseline 28-day seizure rate-6 month, Mean ([2]; CDKL5 cohort, N=7): 1373.85
Post-baseline 28-day seizure rate-6 month, Median ([2]; CDKL5 cohort, N=7): 67.29
28-day individual seizure frequency, post-baseline 26-Week open-label period, Mean (SD) ([2]; CDKL5 n=7, MITT): 103.70
28-day individual seizure frequency, post-baseline 26-Week open-label period, Median ([2]; CDKL5 n=7, MITT): 67.29
28-day individual seizure frequency, post-baseline through Month 3 (Day 91), Mean (SD) ([2]; CDKL5 n=7, MITT): 103.69
28-day individual seizure frequency, post-baseline through Month 3 (Day 91), Median ([2]; CDKL5 n=7, MITT): 53.82
Percent change from baseline (at Day 91), 28-day individual seizure frequency, Mean (SD) ([2]; CDKL5 n=7, MITT): −30.33%
Percent change from baseline (at Day 91), 28-day individual seizure frequency, Median ([2]; CDKL5 n=7, MITT): −46.64%
Percent change from baseline (at Week 26), 28-day individual seizure frequency, Mean (SD) ([2]; CDKL5 n=7, MITT): −21.06%
Percent change from baseline (at Week 26), 28-day individual seizure frequency, Median ([2]; CDKL5 n=7, MITT): −38.10%
Median percent reduction in seizures ([2]; children with CDKL5 disorder): 43%
Reduction in seizure counts, individual patients ([2]; completed CDKL5 patients with >50% reduction): 52% and 59% and 88%
Patients with improvement in seizure control that persists for up to 6 months ([2]; first 6 CDKL5 patients, preliminary): 3 of 6
